In US5629324A, “Thrombin inhibitors” (Merck & Co., Inc., priority 1995, dated 1997):

Biological target: T1, human a-thrombin (Homo sapiens, UniProt P00734)
T1 construct: human a-thrombin
Assay: Proteinase inhibition, human a-thrombin
Format: biochemical
Conditions: 25° C., 0.05M TRIS buffer pH 7.4, 0.15M NaCl, 0.1% PEG
Experimental: Assays of human a-thrombin and bovine trypsin were performed at 25° C. in 0.05M TRIS buffer pH 7.4, 0.15M NaCl, 0.1% PEG. Trypsin assays also contained 1 mM CaCl2.
Concentrations of stock solutions of Z-GPR-afc were determined from measurements of absorbance at 380 nm of the 7-amino-4-trifluoromethyl coumarin produced upon complete hydrolysis of an aliquot of the stock solution by thrombin.
Times required to achieve equilibration between enzyme and inhibitor were determined in control experiments. Initial velocities of product formation in the absence (Vo) or presence of inhibitor (Vi) were measured. Assuming competitive inhibition, and that unity is negligible compared Km /[S], […] (where [S], [I], and e respectively represent the total concentrations, of substrate, inhibitor and enzyme), the equilibrium constant (Ki) for dissociation of the inhibitor from the enzyme can be obtained from the dependence of Vo /Vi on [I] shown in equation 1.

Compound | Ki
N=C(N)N1CCC(CNC(=O)[C@@H]2CCCN2C(=O)CC(c2ccccc2)c2ccccc2)CC1 | 2.7 nM
N=C(N)N1CCC(CNC(=O)[C@@H]2CCCN2C(=O)C2(O)c3ccccc3-c3ccccc32)CC1 | 1.1 nM
